In publication PMC10575921 (Nature Communications, 2023):
pEC50, pIC50: −log10 of the molar value. Values joined by “and” are separate entries in the source; they are usually repeats but may differ in a detail not shown here. Identical values can stand only once. Like-named read-outs stand apart in the source and are kept apart here.

Legend:
[1] = tested on: human primary hepatocytes; settings: primary hepatocyte cytotoxicity
[2] = target: T1, SARS-CoV-2 3CL^pro (Severe acute respiratory syndrome coronavirus 2, UniProt P0DTD1); test: biochemical; settings: for inhibition at 0.01563 µM: concentration 15.63 nM; for inhibition at 0.03125 µM: concentration 31.25 nM; for inhibition at 1 µM: concentration 1000.00 nM; for inhibition at 0.5 µM: concentration 500.00 nM; for pIC50: IC50; for IC50: IC50 (nM)
[3] = buffer, pH 7.4
[4] = tested on: SARS-CoV-2 Delta strain; test: microbe, parasite or virus in culture; assay type: cell-based
[5] = in vitro; settings: African green monkey
[6] = target: T1, SARS-CoV-2 3CL^pro; assay type: biochemical

Structure (SMILES): CC/C(=C(\c1ccccc1)c1ccc(OCCN(C)C)cc1)c1ccccc1 [Tamoxifen]
- % of vehicle control ([1]; 0.206 μM): 109.51%
- % of vehicle control ([1]; 5.56 μM): 81.38% and 83.81% and 90.39%
- % of vehicle control ([1]; 16.67 μM): 0.08% and 0.0644% and 0.0757%
- % of vehicle control ([1]; 50 μM): 0.06% and 0.05%
- % of vehicle control ([1]; 150 μM): 0.0474% and 0.03% and 0.04%

Structure (SMILES): CC(C)(C)NC(=O)N[C@H](C(=O)N1C[C@H]2[C@@H]([C@H]1C(=O)NC(CC1CCC1)C(=O)C(N)=O)C2(C)C)C(C)(C)C (stereo partly shown) [boceprevir, reference compound]
- inhibition at 50 µM ([2]; 50000.00 nM, read-out: inhibition ratio (%)): 90.9%
- inhibition at 100 µM ([2]; 100000.00 nM, read-out: inhibition ratio (%)): 97.1%
- inhibition at 25 µM ([2]; […], read-out: inhibition ratio (%)): 82.4%

Structure (SMILES): CC(C)(C)NC(=O)N[C@H](C(=O)N1C[C@H]2[C@@H]([C@H]1C(=O)N[C@H](C=O)C[C@@H]1CCNC1=O)C2(C)C)C(C)(C)C [compound 1]
- GSHt1/2 (half-life of the electrophile warhead to react with glutathione) [3]: 101 min
- inhibition at 0.01563 µM ([2]; read-out: inhibition ratio (%)): 72.2%
- inhibition at 0.03125 µM ([2]; read-out: inhibition ratio (%)): 81.7%
- inhibition at 1 µM ([2]; read-out: inhibition ratio (%)): 99.4%

Structure (SMILES): CC(C)(C)NC(=O)N[C@H](C(=O)N1C[C@H]2[C@@H]([C@H]1C(=O)N[C@H](C#N)C[C@@H]1CCNC1=O)C2(C)C)C(C)(C)C [compound 2]
- GSHt1/2 (half-life of the electrophile warhead to react with glutathione) [3]: 962 min
- pEC50 ([4]; Severe acute respiratory syndrome coronavirus 2, Vero C1008): 5.13
- EC50 ([4]; Severe acute respiratory syndrome coronavirus 2, Vero C1008, read-out: EC50 (nM), single independent experiment): 5890 nM
- pEC50 ([4]; read-out: EC50^CP): 6.50
- CC50 [5]: > 500 µM
- inhibition at 0.03125 µM ([2]; read-out: inhibition ratio (%)): 59.6%
- inhibition at 0.5 µM ([2]; read-out: inhibition ratio (%)): 100%

Structure (SMILES): CC(=O)/C=C/[C@H](C[C@@H]1CCNC1=O)NC(=O)[C@@H]1[C@@H]2[C@H](CN1C(=O)[C@@H](NC(=O)NC(C)(C)C)C(C)(C)C)C2(C)C [compound 3]
- GSHt1/2 (half-life of the electrophile warhead to react with glutathione) [3]: 15 min
- pIC50 [2]: 7.85
- IC50 [2]: 12 nM and 17 nM and 14 nM
- inhibition at 0.01563 µM ([2]; read-out: inhibition ratio (%)): 52.7%
- inhibition at 0.03125 µM ([2]; read-out: inhibition ratio (%)): 85.4%
- inhibition at 0.5 µM ([2]; read-out: inhibition ratio (%)): 101%
- inhibition at 1 µM ([2]; read-out: inhibition ratio (%)): 99.6%
- reversibility of SARS-CoV-2 3CLpro inhibition [6]: irreversible

Structure (SMILES): CC(C)(C)NC(=O)N[C@H](C(=O)N1CC[C@@H](Oc2ccccc2)[C@H]1C(=O)N[C@H](C#N)C[C@@H]1CCNC1=O)C(C)(C)C [compound 4]
- pIC50 [2]: 5.16
- IC50 [2]: 7170 nM and 7720 nM and 5940 nM
- inhibition at 3.125 µM ([2]; concentration 3125.00 nM, read-out: inhibition ratio (%)): 31.2%
- inhibition at 50 µM ([2]; concentration 50000.00 nM, read-out: inhibition ratio (%)): 91.2%
- inhibition at 100 µM ([2]; concentration 100000.00 nM, read-out: inhibition ratio (%)): 96.8%
- inhibition at 25 µM ([2]; concentration […], read-out: inhibition ratio (%)): 86%

Structure (SMILES): CC(C)(C)NC(=O)N[C@H](C(=O)N1C[C@@H](c2ccccc2)C[C@H]1C(=O)N[C@H](C#N)C[C@@H]1CCNC1=O)C(C)(C)C [compound 5]
- pIC50 [2]: 6.09
- IC50 [2]: 883 nM and 880 nM and 679 nM
- inhibition at 5 µM ([2]; concentration 5000.00 nM, read-out: inhibition ratio (%)): 91.4%
- inhibition at 10 µM ([2]; concentration 10000.00 nM, read-out: inhibition ratio (%)): 94.8%
